# Laboratory results published in patent US10457642B2, “211-astatine containing radiotherapeutics for the treatment of cancer” (The Trustees of The University of Pennsylvania, priority 2015, dated 2019).
# Several values for one entry are separate records, joined by “and”; a condition that tells them apart may be missing. Equal entries are not always repeated. Where two headings read alike, the source gives them in different places.
# Columns and labels:
# [1] = in vivo; cited from earlier work
# [2] = Procedure: Tumors were grown by subcutaneously injecting 1×10^6 EMT-6 mouse breast cancer cells (ATCC #CRL-2755) into the flanks of female BALB/c mice (Taconic). Tumors were an appropriate size of approximately 200 mm^3 after 14 days of growth. On the day of experiment 10 μCi of newly synthesized ^211At—N-(6,7-dimethoxy-3,4-dihydroisoquinolin-2(1H)-yl)butyl)-2,3-dimethoxybenzamide in saline (ethanol<5%) was administered intravenously to mice under isoflurane anesthesia. Mice were sacrificed by cervical dislocation followed by immediate cardiac puncture post administration at time points of 5 min, 1, 2, 4, 8, and 24 h (n=4 mice/time point). Tissue harvested included; blood, heart, muscle, lung, kidney, pancreas, spleen, liver, skin, brain, thyroid, stomach and EMT-6 tumor. Tissues were weighed and counted on an automatic gamma counter as previously described. All animal experiments were conducted under IACUC-approved protocols compliant with University of Pennsylvania guidelines for the care and use of research animals.
# sigma-2 receptor = target: T1, sigma-2 receptor (Homo sapiens, UniProt Q5BJF2); assay: In vitro live cellular binding studies in MDA-MB-231 breast cancer cells; details: MDA-MB-231 cells
# T1 construct: was evaluated in MDA-MB-231 breast cancer cells (ATCC-HTB-26) known to have high sigma-2 receptor density; host or cells: MDA-MB-231 (living, plated cells)
# Procedure: MDA-MB-231 were cultured in Minimum Essential Media (MEM) with added nutrients, 10% fetal bovine serum (FBS) and 1% penicillin/streptomycin at 5% CO2 and 37° C. Twenty-four hours before assay cells were plated at 50,000 cell/well in 96-well format. Two solutions of freshly synthesized radioligand were diluted to a concentration of approximately 2,000 cpm/μL in phosphate buffered saline with calcium and magnesium (PBS w/ Ca^2+ and Mg^2+), with and without non-radioactive 100 μM of the standard to determine non-specific binding. […] Total volume of treatment in each well was 50 μL. PBS w/ Ca^2+ and Mg^2+ without substrate was added to the last row of wells and was used for protein quantification at the end of the experiment. Treatment was removed at time points over the course of 2 h (n=4/time point). At each time of treatment removal, wells were washed with PBS×3. At the end of the experiment wells were counted on an automatic gamma counter using a custom protocol with an energy window of 70-110 KeV (Wizard™ 2470, Perkin Elmer, Waltham Mass.). Protein quantification was performed using a modified Lowry method. Independent experiments were repeated in triplicate. One-phase association kinetics were modeled using Prism™ software version 6.0 (La Holla, Calif.).
# T1 sequence (Q5BJF2 whole entry): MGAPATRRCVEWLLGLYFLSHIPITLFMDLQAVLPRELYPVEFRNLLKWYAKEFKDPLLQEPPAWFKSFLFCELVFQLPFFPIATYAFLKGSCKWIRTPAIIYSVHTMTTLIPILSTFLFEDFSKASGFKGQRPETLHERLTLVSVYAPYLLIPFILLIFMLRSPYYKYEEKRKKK
smiles,measurement,setting,value
"COc1cc2c(cc1OC)CN(CCCCNC(=O)c1cc(I)cc(OC)c1OC)CC2 [iodinated sigma-2 ligand standard, 5-iodo-N-(4-(6,7-dimethoxy-3,4-dihydroisoquinolin-2(1H)-yl)butyl)-2,3-dimethoxybenzamide]",tumor uptake,[1],2 % ID/g
"COc1cc2c(cc1OC)CN(CCCCNC(=O)c1cc([211At])cc(OC)c1OC)CC2 [^211At—N-(6,7-dimethoxy-3,4-dihydroisoquinolin-2(1H)-yl)butyl)-2,3-dimethoxybenzamide]","Decay corrected biodistribution, Blood",[2]; 5 min after i.v.,4.06 ± 0.19 % ID/g
same,"Decay corrected biodistribution, Blood",[2]; 1 h after i.v.,2.12 ± 0.15 % ID/g
same,"Decay corrected biodistribution, Blood",[2]; 2 h after i.v.,2.43 ± 0.82 % ID/g
same,"Decay corrected biodistribution, Blood",[2]; 4 h after i.v.,1.64 ± 0.11 % ID/g
same,"Decay corrected biodistribution, Blood",[2]; 8 h after i.v.,1.82 ± 0.10 % ID/g
same,"Decay corrected biodistribution, Blood",[2]; 24 h after i.v.,0.44 ± 0.10 % ID/g
same,"Decay corrected biodistribution, Brain",[2]; 5 min after i.v.,1.95 ± 0.14 % ID/g
same,"Decay corrected biodistribution, Brain",[2]; 1 h after i.v.,0.46 ± 0.08 % ID/g
same,"Decay corrected biodistribution, Brain",[2]; 2 h after i.v.,0.39 ± 0.01 % ID/g
same,"Decay corrected biodistribution, Brain",[2]; 4 h after i.v.,0.21 ± 0.02 % ID/g
same,"Decay corrected biodistribution, Brain",[2]; 8 h after i.v.,0.25 ± 0.02 % ID/g
same,"Decay corrected biodistribution, Brain",[2]; 24 h after i.v.,0.07 ± 0.02 % ID/g
same,"retention of radioactivity in the tumor, time post administration",[2]; EMT-6 tumor,1 to 8 h
same,"Decay corrected biodistribution, Tumor","[2]; EMT-6 tumor, 5 min after i.v.",0.74 ± 0.07 % ID/g
same,"Decay corrected biodistribution, Tumor","[2]; EMT-6 tumor, 1 h after i.v.",4.40 ± 0.15 % ID/g
same,"Decay corrected biodistribution, Tumor","[2]; EMT-6 tumor, 2 h after i.v.",4.93 ± 0.78 % ID/g
same,"Decay corrected biodistribution, Tumor","[2]; EMT-6 tumor, 4 h after i.v.",5.05 ± 0.68 % ID/g
same,"Decay corrected biodistribution, Tumor","[2]; EMT-6 tumor, 8 h after i.v.",5.11 ± 0.09 % ID/g
same,"Decay corrected biodistribution, Tumor","[2]; EMT-6 tumor, 24 h after i.v.",1.34 ± 0.37 % ID/g
same,Tumor accumulation,"[2]; EMT-6 tumor, from 1 h to at least 8 h",above 4 % ID/g
same,"Decay corrected biodistribution, Heart",[2]; 5 min after i.v.,10.2 ± 0.82 % ID/g
same,"Decay corrected biodistribution, Heart",[2]; 1 h after i.v.,5.16 ± 1.21 % ID/g
same,"Decay corrected biodistribution, Heart",[2]; 2 h after i.v.,4.70 ± 0.31 % ID/g
same,"Decay corrected biodistribution, Heart",[2]; 4 h after i.v.,3.54 ± 0.17 % ID/g
same,"Decay corrected biodistribution, Heart",[2]; 8 h after i.v.,4.01 ± 0.29 % ID/g
same,"Decay corrected biodistribution, Heart",[2]; 24 h after i.v.,1.14 ± 0.27 % ID/g
same,"Decay corrected biodistribution, Kidney",[2]; 5 min after i.v.,47.7 % ID/g and 47.7 ± 2.32 % ID/g
same,"Decay corrected biodistribution, Kidney",[2]; 1 h after i.v.,5.83 % ID/g and 5.83 ± 0.53 % ID/g
same,"Decay corrected biodistribution, Kidney",[2]; 2 h after i.v.,5.59 ± 0.35 % ID/g
same,"Decay corrected biodistribution, Kidney",[2]; 4 h after i.v.,2.97 ± 0.13 % ID/g
same,"Decay corrected biodistribution, Kidney",[2]; 8 h after i.v.,3.24 ± 0.21 % ID/g
same,"Decay corrected biodistribution, Kidney",[2]; 24 h after i.v.,1.05 ± 0.23 % ID/g
same,"Decay corrected biodistribution, Liver",[2]; 5 min after i.v.,18.1 ± 2.11 % ID/g
same,"Decay corrected biodistribution, Liver",[2]; 1 h after i.v.,6.39 ± 3.27 % ID/g
same,"Decay corrected biodistribution, Liver",[2]; 2 h after i.v.,4.63 ± 1.01 % ID/g
same,"Decay corrected biodistribution, Liver",[2]; 4 h after i.v.,1.87 ± 0.17 % ID/g
same,"Decay corrected biodistribution, Liver",[2]; 8 h after i.v.,1.86 ± 0.19 % ID/g
same,"Decay corrected biodistribution, Liver",[2]; 24 h after i.v.,0.59 ± 0.20 % ID/g
same,"Decay corrected biodistribution, Lung",[2]; 5 min after i.v.,20.2 ± 1.39 % ID/g
same,"Decay corrected biodistribution, Lung",[2]; 1 h after i.v.,7.14 ± 1.03 % ID/g
same,"Decay corrected biodistribution, Lung",[2]; 2 h after i.v.,6.42 ± 0.39 % ID/g
same,"Decay corrected biodistribution, Lung",[2]; 4 h after i.v.,5.74 ± 0.53 % ID/g
same,"Decay corrected biodistribution, Lung",[2]; 8 h after i.v.,6.23 ± 0.57 % ID/g
same,"Decay corrected biodistribution, Lung",[2]; 24 h after i.v.,2.21 ± 0.40 % ID/g
same,"Decay corrected biodistribution, Muscle",[2]; 5 min after i.v.,0.69 ± 0.16 % ID/g
same,"Decay corrected biodistribution, Muscle",[2]; 1 h after i.v.,1.24 ± 0.18 % ID/g
same,"Decay corrected biodistribution, Muscle",[2]; 2 h after i.v.,1.15 ± 0.07 % ID/g
same,"Decay corrected biodistribution, Muscle",[2]; 4 h after i.v.,0.56 ± 0.03 % ID/g
same,"Decay corrected biodistribution, Muscle",[2]; 8 h after i.v.,0.61 ± 0.04 % ID/g
same,"Decay corrected biodistribution, Muscle",[2]; 24 h after i.v.,0.19 ± 0.01 % ID/g
same,"Decay corrected biodistribution, Pancreas",[2]; 5 min after i.v.,8.81 ± 1.21 % ID/g
same,"Decay corrected biodistribution, Pancreas",[2]; 1 h after i.v.,18.1 ± 1.60 % ID/g
same,"Decay corrected biodistribution, Pancreas",[2]; 2 h after i.v.,18.0 ± 1.65 % ID/g
same,"Decay corrected biodistribution, Pancreas",[2]; 4 h after i.v.,26.3 ± 2.11 % ID/g
same,"Decay corrected biodistribution, Pancreas",[2]; 8 h after i.v.,21.1 ± 2.35 % ID/g
same,"Decay corrected biodistribution, Pancreas",[2]; 24 h after i.v.,5.78 ± 0.89 % ID/g
same,"Decay corrected biodistribution, Skin",[2]; 5 min after i.v.,0.58 ± 0.05 % ID/g
same,"Decay corrected biodistribution, Skin",[2]; 1 h after i.v.,2.30 ± 0.23 % ID/g
same,"Decay corrected biodistribution, Skin",[2]; 2 h after i.v.,2.66 ± 0.30 % ID/g
same,"Decay corrected biodistribution, Skin",[2]; 4 h after i.v.,1.79 ± 0.15 % ID/g
same,"Decay corrected biodistribution, Skin",[2]; 8 h after i.v.,2.10 ± 0.42 % ID/g
same,"Decay corrected biodistribution, Skin",[2]; 24 h after i.v.,0.85 ± 0.08 % ID/g
same,"Decay corrected biodistribution, Spleen",[2]; 5 min after i.v.,8.41 ± 2.67 % ID/g
same,"Decay corrected biodistribution, Spleen",[2]; 1 h after i.v.,13.2 ± 2.76 % ID/g
same,"Decay corrected biodistribution, Spleen",[2]; 2 h after i.v.,12.0 ± 1.47 % ID/g
same,"Decay corrected biodistribution, Spleen",[2]; 4 h after i.v.,7.59 ± 0.49 % ID/g
same,"Decay corrected biodistribution, Spleen",[2]; 8 h after i.v.,7.49 ± 1.38 % ID/g
same,"Decay corrected biodistribution, Spleen",[2]; 24 h after i.v.,2.14 ± 1.02 % ID/g
same,"Decay corrected biodistribution, Stomach",[2]; 5 min after i.v.,5.87 ± 1.12 % ID/g
same,"Decay corrected biodistribution, Stomach",[2]; 1 h after i.v.,15.9 ± 2.53 % ID/g
same,"Decay corrected biodistribution, Stomach",[2]; 2 h after i.v.,16.3 ± 2.29 % ID/g
same,"Decay corrected biodistribution, Stomach",[2]; 4 h after i.v.,19.7 ± 1.79 % ID/g
same,"Decay corrected biodistribution, Stomach",[2]; 8 h after i.v.,28.2 ± 7.21 % ID/g
same,"Decay corrected biodistribution, Stomach",[2]; 24 h after i.v.,9.88 ± 1.62 % ID/g
same,"Decay corrected biodistribution, Thyroid",[2]; 5 min after i.v.,5.87 ± 0.85 % ID/g
same,"Decay corrected biodistribution, Thyroid",[2]; 1 h after i.v.,11.6 ± 1.01 % ID/g
same,"Decay corrected biodistribution, Thyroid",[2]; 2 h after i.v.,18.3 ± 6.12 % ID/g
same,"Decay corrected biodistribution, Thyroid",[2]; 4 h after i.v.,14.0 ± 4.26 % ID/g
same,"Decay corrected biodistribution, Thyroid",[2]; 8 h after i.v.,13.3 ± 2.96 % ID/g
same,"Decay corrected biodistribution, Thyroid",[2]; 24 h after i.v.,4.87 ± 1.15 % ID/g
same,maximal tumor to muscle ratio,[2]; at 4 h,9.02
same,reduction in total binding through the addition of the standard,sigma-2 receptor; +100 μM non-radioactive standard,80%
same,time of 50% maximal binding (T1/2),sigma-2 receptor; one-phase association,12.51 min
